The first series has as its target IL-6 protein (Homo sapiens, UniProt P05231). Kind of series: ELISA on IL-6 protein with the conjugate of antibody Fab fragment and intelectin (Example 8). It counts as binding. The following applies: conjugate as primary antibody; HRP-labeled anti-intelectin-1 antibody 2D2. The procedure:
An ELISA analysis on IL-6 protein was performed using the conjugate generated in Example 6.
More specifically, IL-6 protein was adsorbed on an ELISA plate, and the conjugate generated in Example 6 was used for reaction as the primary antibody, and the horseradish peroxidase-labeled anti-intelectin-1 monoclonal antibody (2D2) was used for reaction as the secondary antibody. The detection was conducted using 3,3′,5,5′-tetramethylbenzidine.
IL-6 protein, sequence (P05231 30-212): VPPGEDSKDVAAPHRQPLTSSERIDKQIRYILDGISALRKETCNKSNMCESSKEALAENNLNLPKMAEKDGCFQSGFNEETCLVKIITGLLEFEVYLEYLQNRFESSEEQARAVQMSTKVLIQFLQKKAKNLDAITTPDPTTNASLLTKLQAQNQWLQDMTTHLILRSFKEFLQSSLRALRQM
On to “conjugate generated in Example 6: H chain Fab region of anti-IL-6 monoclonal antibody MH166 joined via one glycine to human intelectin-1 (S165A), co-expressed with MH166 L chain”, for which the “binding to IL-6 protein (ELISA)” value is recorded as “bind to IL-6 protein”.

The target of the next series is T1, Recombinant human intelectin-1 (Homo sapiens, UniProt Q8WWA0, V109D). The series can be described thus: Inhibition of the binding of intelectin to a 3-amino-1-propanediol sensor chip by various compounds (Biacore, Example 3).
T1 sequence (Q8WWA0 19-298 V109D): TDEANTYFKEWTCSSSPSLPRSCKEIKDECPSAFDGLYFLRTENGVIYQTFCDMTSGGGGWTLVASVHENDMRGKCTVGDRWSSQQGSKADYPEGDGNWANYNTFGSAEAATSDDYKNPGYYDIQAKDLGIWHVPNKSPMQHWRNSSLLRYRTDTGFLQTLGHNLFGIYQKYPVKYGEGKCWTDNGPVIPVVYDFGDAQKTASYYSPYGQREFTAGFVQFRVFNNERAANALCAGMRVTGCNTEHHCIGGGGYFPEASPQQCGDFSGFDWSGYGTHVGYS
Details: not given
As for the experimental part: The binding of purified intelectin to a sensor chip to which 3-amino-1-propanediol is fixed via an amino group was measured using Biacore (GE Healthcare Biosciences) under the presence of various kinds of compounds that were serially diluted. Recombinant human intelectin-1 was used as intelectin. The above-mentioned compound was a compound containing or not containing a diol group. Specifically, the compound was glycerol, 1,2-propanediol, 1,3-propanediol, 1-propanol, ethylene glycol, ethanol, 2-methoxyethanol, galactose, 2-acetamido-2-deoxy-4-O-beta-D-galactopyranosyl-D-glucopyranose (Galp-GlcNAc), 2-acetamido-2-deoxy-4-O-beta-D-galactofuranosyl-D-glucopyranose (Galf-GlcNAc), D-ribose, or L-ribose.
Intelectin was used at the final concentration of 0.5 microgram/mL. 10 mM HEPES (pH 7.0) containing 1 mM CaCl2, 150 mM NaCl, and 0.03% Tween 20 was used as the measuring buffer. The binding of intelectin measured using the sample that was not added with an above-mentioned compound was considered 100%, and the binding of intelectin in each sample was measured.
Take `OCCCCO` [1,4-butanediol]: the IC50 is > 100 mM.
Same read-out and setting: in the case of `O=C(CO)[C@@H](O)[C@H](O)[C@H](O)CO` [D-fructose] it was 9 mM.
On the same count and under the same terms, in the case of `O=C[C@H](O)[C@@H](O)[C@@H](O)[C@H](O)CO` [D-galactose] it was 11 mM.
On the same count and under the same terms, in the case of `O=C[C@H](O)[C@@H](O)[C@H](O)[C@H](O)CO` [D-glucose] it was 18 mM; in that of `O=C[C@@H](O)[C@@H](O)[C@H](O)[C@H](O)CO` [D-mannose], 16 mM.
Consider `O=C(CO)[C@@H](O)[C@H](O)[C@@H](O)CO` [L-sorbose], for which the IC50 came out at 14 mM.
On the same count and under the same terms, under `OCCO` [ethylene glycol] stands 2.2 mM.

The same series, now with this note: Biacore; intelectin 0.5 microgram/mL; sensor chip with 3-amino-1-propanediol fixed; 10 mM HEPES pH 7.0, 1 mM CaCl2; read-out: IC50 for inhibition of the binding of intelectin and the diol group.
`CCC(O)CO` (stereo not drawn) [1,2-butanediol]: the IC50 turned out to be 0.8 mM.
Turning to `CC(O)CO` (stereo not drawn) [1,2-propanediol], the concentration for half-maximal inhibition (IC50) was determined as 0.9 mM.
Regarding `CC(O)CCO` (stereo not drawn) [1,3-butanediol], the IC50 is 35 mM.
The same measure, in the same setting: under `OCCCO` [1,3-propanediol] stands 30 mM; under `CCCO` [1-propanol], > 100 mM; under `COC1(C(=O)O)C[C@H](O)[C@@H](NC(C)=O)[C@H]([C@H](O)[C@H](O)CO)O1` (stereo partly drawn) [2-O-methyl-D-N-acetylneuraminic acid], 6 mM.
Consider `O=CC[C@@H](O)[C@@H](O)[C@H](O)CO` [2-deoxygalactose], for which the IC50 is 1.1 mM.
On the same count and under the same terms, under `O=CC[C@H](O)[C@H](O)CO` [2-deoxyribose] stands 1.8 mM; under `COCCO` [2-methoxyethanol], > 100 mM.
Take `NCC(O)CO` (stereo not drawn) [3-amino-1,2-propanediol]: the IC50 turned out to be 1.8 mM.
As for `NCCCO` [3-amino-1-propanol], the 50% inhibitory concentration (IC50) was > 100 mM.
On the same count and under the same terms, in the case of `C[C@@H](O)CO` [(R)-1,2-propanediol] it was 1 mM; in that of `C[C@@H](O)[C@@H](C)O` [(R,R)-2,3-butanediol], 5 mM.
For the compound `C[C@H](O)CO` [(S)-1,2-propanediol], the half-inhibitory concentration (IC50) was 1.2 mM.
Same read-out and setting: in the case of `C[C@H](O)[C@H](C)O` [(S,S)-2,3-butanediol] it was 5 mM.
Same read-out and setting: under `O=P(O)(O)OC(CO)CO` [Beta-glycerophosphate] stands > 100 mM.
The same measure, in the same setting: under `O=C[C@@H](O)[C@H](O)[C@H](O)CO` [D-arabinose] stands 30 mM.
Regarding `C[C@@H](O)[C@H](O)[C@H](O)[C@@H](O)C=O` [D-fucose], the IC50 came to 60 mM.
Still for that read-out and setting: under `O=C[C@@H](O)[C@@H](O)[C@H](O)CO` [D-lyxose] stands 22 mM; under `O=C[C@H](O)[C@H](O)[C@H](O)CO` [D-ribose], 0.5 mM; under `O=C[C@H](O)[C@@H](O)[C@H](O)CO` [D-xylose], 3.3 mM.
Consider `NCCO` [Ethanolamine], for which the IC50 is > 100 mM.
On the same count and under the same terms, under `CC(=O)N[C@H]1C(O)O[C@H](CO)[C@@H](O[C@@H]2O[C@@H]([C@H](O)CO)[C@H](O)[C@H]2O)[C@@H]1O` (stereo partly drawn) [Galf-GlcNAc, 2-acetamido-2-deoxy-4-O-beta-D-galactofuranosyl-D-glucopyranose] stands 1.4 mM; under `CC(=O)N[C@H]1C(O)O[C@H](CO)[C@@H](O[C@@H]2O[C@H](CO)[C@H](O)[C@H](O)[C@H]2O)[C@@H]1O` (stereo partly drawn) [Galp-GlcNAc, 2-acetamido-2-deoxy-4-O-beta-D-galactopyranosyl-D-glucopyranose], 13 mM.
Still for that read-out and setting: under `O=C[C@H](O)[C@@H](O)[C@@H](O)CO` [L-arabinose] stands 22 mM; under `O=C1O[C@H]([C@@H](O)CO)C(O)=C1O` [L-ascorbic acid], 0.8 mM.
As for `C[C@H](O)[C@@H](O)[C@@H](O)[C@H](O)C=O` [L-fucose], the IC50 is > 100 mM.
Turning to `O=C[C@H](O)[C@H](O)[C@@H](O)CO` [L-lyxose], the IC50 stood at 13 mM.
The same measure, in the same setting: under `C[C@H](O)[C@H](O)[C@@H](O)[C@@H](O)C=O` [L-rhamnose] stands 30 mM; under `O=C[C@@H](O)[C@@H](O)[C@@H](O)CO` [L-ribose], 0.3 mM; under `O=C[C@@H](O)[C@H](O)[C@@H](O)CO` [L-xyrose], 9 mM.
For `CC(=O)N[C@H]1C(O)O[C@H](CO)[C@@H](O)[C@@H]1O` (stereo partly drawn) [N-acetylglucosamine], the IC50 was 50 mM.
The same measure, in the same setting: under `NC(CO)(CO)CO` [Tris] stands 14 mM.
On the same count and under the same terms, in the case of `O=P(O)(O)OCC(O)CO` (stereo not drawn) [alpha-glycerophosphate] it was 1.2 mM; in that of `CCO` [ethanol], > 100 mM; in that of `OCC(O)CO` [glycerol], 0.8 mM.
Turning to `C[C@H](O)[C@@H](C)O` [meso-2,3-butanediol], the half-maximal inhibitory concentration (IC50) was found to be 1.8 mM.
As for `CCCC(=O)OCC(O)CO` (stereo not drawn) [monobutyrin], the IC50 was 0.8 mM.
Still for that read-out and setting: under `OC[C@@H](O)[C@@H](O)[C@@H](O)CO` [ribitol] stands 1.2 mM.

Another series deals with T2, Recombinant human TNF-alpha (Homo sapiens, UniProt P01375).
T2 construct: purchased Life Technologies
T2 sequence (P01375 77-233 limits assumed): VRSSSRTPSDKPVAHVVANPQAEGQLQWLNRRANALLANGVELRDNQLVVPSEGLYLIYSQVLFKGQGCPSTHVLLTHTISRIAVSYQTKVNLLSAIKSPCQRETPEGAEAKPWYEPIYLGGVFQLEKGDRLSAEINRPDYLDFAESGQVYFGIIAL
Kind of series: Inhibitory effect on cytotoxicity by TNF-alpha in L929 cells (Example 12). It counts as cell-based, mouse. The conditions noted are these: actinomycin D 2.12 micro M, TNF-alpha 1 ng/mL, 24 hours. The procedure:
Actinomycin D at the final concentration of 2.12 micro M, recombinant human TNF-alpha (Life Technologies) at the final concentration of 1 ng/mL, and serially diluted conjugates generated in Example 7 were added to the medium of L929, a mouse-derived cell line, and the cells were cultured for 24 hours at 37 deg C. Subsequently, the number of live cells were measured using a commercially available kit (model “CellTiter96 (Trademark),” Promega), and the cell survival rate was determined. Another experiment, where a commercially available anti-TNF formulation (Etanercept, soluble TNF receptor, product name “ Enbrel (registered trademark),” Takeda Pharmaceutical Company) was used instead of the conjugate generated in Example 7, was also performed as a control.
Regarding Etanercept, the “cytotoxicity inhibitory activity (cell survival rate)” value is on record as “approximately equivalent cytotoxicity inhibitory activities”.

A further series deals with T2, Recombinant human TNF-alpha. The series can be described thus: Affinity between the conjugate of TNFR2 and intelectin and TNF-alpha (Biacore, Example 11). Format: binding. The conditions noted are these: TNF-alpha as analyte, ligand fixed to sensor chip. The procedure: The binding affinity between the conjugate generated in Example 7 and TNF-alpha was measured using Biacore (GE Healthcare Biosciences). The binding affinity between a commercially available anti-TNF formulation (Etanercept, soluble TNF receptor, product name “ Enbrel (registered trademark),” Takeda Pharmaceutical Company) and TNF-alpha was also measured as a control.
Recombinant human TNF-alpha (Life Technologies) was used as TNF-alpha.
As to Etanercept, the “association rate constant Ka” value was determined as 1.09e+06 M⁻¹ s⁻¹ and the “dissociation rate constant Kd” value was determined as 0.000342 s⁻¹.

The series is the same for the next values; noted with them: TNF-alpha as analyte, ligand fixed to sensor chip; read-out: dissociation constant KD.
Etanercept: the dissociation constant Kd is 0.313 nM.

A further series deals with T1, Recombinant human intelectin-1. Kind of series: Binding of monoacylglycerol and intelectin (precipitation, SDS-PAGE, Example 5). The conditions noted are these: lipid 100 micro M in medium containing intelectin, 15 minutes at 37 deg C. The procedure:
Monoacylgrycerols such as monopalmitin and monoolein are used as a component of micelles or liposomes. 1-monopalmitin, 2-monopalmitin, or 1-palmitoyl lysophosphatidic acid as a negative control at the final concentration of 100 micro M was added to 500 microliters of a medium containing intelectin, and the medium was stirred intensely and incubated for 15 minutes at 37 deg C. Recombinant human intelectin-1 was used as intelectin. By the above-mentioned procedures, it is expected that insoluble aggregates having a micelle-like structure with the diol group facing outwards and the acyl group facing inwards are formed and intelectin binds on the surface.
Subsequently, the samples were cooled for 15 minutes at 4 deg C. and centrifuged, and the precipitation was collected, washed once with buffer, and dissolved in sample buffer. Samples were then separated by SDS-PAGE and stained with Coomassie Brilliant Blue.
As to `CCCCCCCCCCCCCCCC(=O)OCC(O)CO` (stereo not drawn) [1-monopalmitin], the “binding of intelectin to the lipid (SDS-PAGE)” value is given as “bound”.
On the same count and under the same terms, under `CCCCCCCCCCCCCCCC(=O)OCC(O)COP(=O)(O)O` (stereo not drawn) [1-palmitoyl lysophosphatidic acid] stands “only slightly”; under `CCCCCCCCCCCCCCCC(=O)OC(CO)CO` [2-monopalmitin], “bound”.
